# According to patent publication US12571791B2, “Methods for evaluating cardiac safety of drug using cardiomyocytes derived from human stem cells” (NEXEL CO., LTD., priority 2021, dated 2026):
# Tested on: human stem cell-derived cardiomyocytes
# Procedure: First, step G-1, replaces the maintenance medium in the MEA plate that has undergone the 3rd incubation step (step F-3) with a fresh maintenance medium, and places the MEA plate into the cell culture incubator at 37° C. and 5% CO2 for 3 to 5 hours (preferably 3 hours) for stabilization of cells.
# Next, the first set of measurement values on beat rate, spike amplitude, and field potential duration of the human stem cell-derived cardiomyocytes are taken (step G-2) with the MEA measurement device for the MEA plate that has undergone cell stabilization step (step G-1).
# After the completion of the first measurement, a portion of the maintenance medium, which corresponds to 1/10 of the total volume in the well, is removed from wells of the MEA plate that has undergone the stabilization process. […]
# Here, raw files stored in the MEA measurement device program are loaded, and the desired section of the data is re-recorded and saved as a CSV file. Then the drug's effect on the field potential of cardiomyocytes is evaluated by the changes in the reaction parameter, based on the first and second measurement values which include beat interval, spike amplitude, and field potential duration, to various concentrations of the drug.
# In addition, the cardiac toxicity of a drug can be determined through changes in FPDcF and spike amplitude. […]
smiles,measurement,value
Cc1cccc(C)c1OCC(C)N (stereo not shown) [Mexiletine],change in spike amplitude,decrease in the spike amplitude according to the drug concentration
